Structures are written as SMILES. In brackets after ≈: the same amount, converted by molar mass. Where only a bound is given, the exact number is not on record here.

Data set [1] is described as follows: Cytotoxicity against MDCK cells. Type of data set: cell-based, Canis lupus familiaris. To be noted: dog.
The nature of data set [2]: Cytotoxicity against african green monkey Vero cells. Format: cell-based. To be noted: chlorocebus sabaeus.

Consider `CC(=O)O[C@@H]1[C@@H](OC(C)=O)/C(C)=C\[C@@H]2OC(=O)[C@]3(C)O[C@]23[C@H](OC(C)=O)[C@H]2[C@](C)(O)[C@H](OC(C)=O)C=C[C@]2(C)[C@H]1OC(C)=O` [BRIARLIDE A], for which the CC50 in data set [1] was determined as 4.74 µg/mL (≈ 7.61 µM); in data set [2], 2.07 µg/mL (≈ 3.32 µM).
For `CC(=O)O[C@@H]1[C@H]2[C@](C)(O)[C@H](OC(C)=O)C=C[C@]2(C)[C@@H](OC(C)=O)[C@H](O)[C@@H](OC(C)=O)/C(C)=C\[C@@H]2OC(=O)[C@]3(C)O[C@@]213` [BRIARLIDE B] the same measures were 15.4 µg/mL (≈ 26.5 µM) and 18.9 µg/mL (≈ 32.6 µM).
For `CC(=O)O[C@@H]1[C@H]2[C@](C)(O)[C@H](OC(C)=O)C=C[C@]2(C)[C@@H](O)[C@H](O)[C@@H](OC(C)=O)/C(C)=C\[C@@H]2OC(=O)[C@]3(C)O[C@@]213` [BRIARLIDE C] the same measures were 38.6 µg/mL (≈ 71.7 µM) and 62.1 µg/mL (≈ 115 µM).
For `CCCCCCCC(=O)O[C@H]1/C(C)=C\[C@@H]2OC(=O)[C@]3(C)O[C@]23[C@H](OC(C)=O)[C@H]2[C@](C)(O)[C@H](OC(C)=O)C=C[C@]2(C)[C@@H](OC(C)=O)[C@@H]1O` [BRIARLIDE D] the same measures were 2.49 µg/mL (≈ 3.75 µM) and 2.26 µg/mL (≈ 3.4 µM).
Turning to `CCCCCC(=O)O[C@H]1/C(C)=C\[C@@H]2OC(=O)[C@]3(C)O[C@]23[C@H](OC(C)=O)[C@H]2[C@](C)(O)[C@H](OC(C)=O)C=C[C@]2(C)[C@@H](OC(C)=O)[C@@H]1O` [BRIARLIDE E], the results for the CC50 in data set [1] and in data set [2] were 4.91 µg/mL (≈ 7.71 µM) and 4.24 µg/mL (≈ 6.66 µM), respectively.
On to `CCCCCCCC(=O)O[C@@H]1[C@@H](O)/C(C)=C\[C@@H]2OC(=O)[C@]3(C)O[C@]23[C@H](OC(C)=O)[C@H]2[C@](C)(O)[C@H](OC(C)=O)C=C[C@]2(C)[C@H]1OC(C)=O` [BRIARLIDE F], for which the CC50 in data set [1] stood at 3.49 µg/mL (≈ 5.25 µM); in data set [2], 4.26 µg/mL (≈ 6.41 µM).
For `CC(=O)O[C@@H]1[C@H]2[C@](C)(O)[C@H](OC(C)=O)C=C[C@]2(C)[C@@H](OC(C)=O)[C@H](OC(C)=O)C/C(C)=C\[C@@H]2OC(=O)[C@]3(C)O[C@@]213` [BRIARLIDE G] the same measures were 67.1 µg/mL (≈ 119 µM) and 22.2 µg/mL (≈ 39.3 µM).
For `CC(=O)O[C@@H]1[C@H]2[C@](C)(O)[C@H](O)C=C[C@]2(C)[C@@H](O)[C@H](OC(C)=O)C/C(C)=C\[C@@H]2OC(=O)[C@]3(C)O[C@@]213` [BRIARLIDE H] the same measures were above 100 µg/mL and above 100 µg/mL.
Consider `CC(=O)O[C@@H]1[C@@H](OC(C)=O)/C(C)=C\[C@@H]2OC(=O)[C@]3(C)O[C@]23[C@H](OC(C)=O)[C@H]2[C@](C)(O)[C@H](O)C=C[C@]2(C)[C@H]1OC(C)=O` [VIOLIDE B], for which the values for the CC50 in data set [1] and in data set [2] were 28.8 µg/mL (≈ 49.6 µM) and 9.8 µg/mL (≈ 16.9 µM), respectively.

By CC50 is commonly meant the concentration that lowers cell viability or growth by half.

Values taken from ChEMBL document CHEMBL1147242, “Briarlides, briarane diterpenes from a gorgonian Briareum sp” (J Nat Prod, 2003).
